Assay results reported in ChEMBL document CHEMBL6120935, “Multifunctional Molecular Hybrids Photoreleasing Nitric Oxide: Advantages, Pitfalls, and Opportunities” (J Med Chem, 2024).

Experiment: n-Octanol/PBS partition coefficient, logP of compound at pH 7.4 incubated for 4 hrs under shaking condition by UV spectrophotometric analysis
Assay type: physicochemical

SMILES | logD at 4 h
O=C(CCCCC[P+](c1ccccc1)(c1ccccc1)c1ccccc1)NCCCNc1ccc([N+](=O)[O-])c(C(F)(F)F)c1 | 2.39
O=C(CC[P+](c1ccccc1)(c1ccccc1)c1ccccc1)NCCCNc1ccc([N+](=O)[O-])c(C(F)(F)F)c1 | 1.99
CC(=O)NCCCNc1ccc([N+](=O)[O-])c(C(F)(F)F)c1 | 2.03

Now from value to compound:

logD at 4 h | SMILES
2.78 | O=C(CCCCCCCC[P+](c1ccccc1)(c1ccccc1)c1ccccc1)NCCCNc1ccc([N+](=O)[O-])c(C(F)(F)F)c1
3.24 | O=C(CCCCCCCCC[P+](c1ccccc1)(c1ccccc1)c1ccccc1)NCCCNc1ccc([N+](=O)[O-])c(C(F)(F)F)c1
